Patent US20040037843A1, “Inducing cellular immune responses to prostate cancer antigens using peptide and nucleic acid compositions” (priority 2003, published 2004)

Columns and labels:
Experiment in all cases: HLA class I binding assay, purified HLA, inhibition of 125I-labelled probe peptide
HLA-A*6802 = HLA-A*6802 (Homo sapiens, UniProt P04439, A269V/D140Y/D185E/E176V/E277Q/E87N/F33Y/G231S/I121R/I166T/I218V/L180W/L300P/L318F/N151K/P208A/P217A/Q86R/R138H/R169H/S129P/T345S/V36M); settings: A2 supermotif cross-reactive binding data; read-out: A*6802 nM
HLA-A*0201 = HLA-A*0201 (Homo sapiens, UniProt P04439, D140Y/D185E/D98H/E176V/E277Q/G131W/G231S/I119V/I121R/I166T/I218V/L300P/L318F/N151K/N90K/P208A/P217A/Q86G/Q94H/R138H/R169H/T345S); settings: A*[…], A2 supermotif cross-reactive binding data
HLA-A*0203 = HLA-A*0203 (Homo sapiens, UniProt P04439, A173T/D140Y/D185E/D98H/E277Q/G131W/G231S/I119V/I121R/I166T/I218V/L180W/L300P/L318F/N151K/N90K/P208A/P217A/Q86G/Q94H/R138H/R169H/T345S); settings: A*[…], A2 supermotif cross-reactive binding data
HLA-A*0202 = HLA-A*0202 (Homo sapiens, UniProt P04439, D140Y/D185E/D98H/E176V/E277Q/G131W/G231S/I119L/I121R/I166T/I218V/L180W/L300P/L318F/N151K/N90K/P208A/P217A/Q67R/Q86G/Q94H/R138H/R169H/T345S); settings: A2 supermotif cross-reactive binding data
HLA-A*0206 = HLA-A*0206 (Homo sapiens, UniProt P04439, D140Y/D185E/D98H/E176V/E277Q/F33Y/G131W/G231S/I119V/I121R/I166T/I218V/L300P/L318F/N151K/N90K/P208A/P217A/Q86G/Q94H/R138H/R169H/T345S); settings: A*[…], A2 supermotif cross-reactive binding data

Row | IC50 (HLA-A*6802) | IC50 (HLA-A*0201) | IC50 (HLA-A*0203) | IC50 (HLA-A*0202) | IC50 (HLA-A*0206) | Compound
1 | 860 nM | 26 nM | 5.3 nM | 1.3 nM | 37 nM | CSCC[C@H](NC(=O)[C@H](CC(=O)O)NC(=O)[C@H](CC(N)=O)NC(=O)[C@H](CO)NC(=O)[C@H](CC(C)C)NC(=O)[C@H](CC(C)C)NC(=O)[C@@H](N)Cc1c[nH]cn1)C(=O)N[C@@H](CS)C(=O)N[C@@H](C)C(=O)N[C@@H](CCCNC(=N)N)C(=O)N[C@H](C(=O)O)C(C)C [Peptide 1418.67]
2 | > 10000 nM | 89 nM | 71 nM | 88 nM | 336 nM | CC(C)C[C@H](NC(=O)[C@H](Cc1ccccc1)NC(=O)[C@@H](NC(=O)[C@@H](N)C(C)C)C(C)C)C(=O)N[C@H](C(=O)N[C@@H](CC(C)C)C(=O)N[C@@H](CO)C(=O)N[C@H](C(=O)N[C@H](C(=O)N[C@@H](Cc1c[nH]c2ccccc12)C(=O)N[C@H](C(=O)O)C(C)C)[C@@H](C)O)C(C)C)[C@@H](C)O [Peptide 63.0185]
3 | > 10000 nM | 119 nM | 278 nM | 102 nM | 176 nM | CSCC[C@H](NC(=O)[C@H](CC(=O)O)NC(=O)[C@H](CC(N)=O)NC(=O)[C@H](CO)NC(=O)[C@H](CC(C)C)NC(=O)[C@H](CC(C)C)NC(=O)[C@@H](N)Cc1c[nH]cn1)C(=O)N[C@@H](CS)C(=O)N[C@H](C(=O)O)C(C)C [Peptide 1418.20]
4 | > 10000 nM | 69 nM | 53 nM | 518 nM | 128 nM | CSCC[C@H](NC(=O)[C@H](Cc1ccccc1)NC(=O)[C@H](CCCCN)NC(=O)[C@@H](NC(=O)[C@@H](NC(=O)[C@@H](N)CCCCN)C(C)C)[C@@H](C)O)C(=O)N[C@@H](CC(C)C)C(=O)N[C@@H](CS)C(=O)N[C@H](C(=O)O)C(C)C [Peptide 60.0220]
5 | 6670 nM | 53 nM | 31 nM | 27 nM | 34 nM | CSCC[C@H](NC(=O)[C@H](Cc1ccccc1)NC(=O)[C@H](CCC(=O)O)NC(=O)[C@@H](NC(=O)[C@@H](NC(=O)[C@@H](N)CCCCN)C(C)C)[C@@H](C)O)C(=O)N[C@@H](CC(C)C)C(=O)N[C@@H](CS)C(=O)N[C@H](C(=O)O)C(C)C [Peptide 1418.21]
6 | 2160 nM | 8.6 nM | 10 nM | 0.8 nM | 2310 nM | H-SLHLLSNDMCV-OH [Peptide 1418.66]
7 | 205 nM | 13 nM | 2.8 nM | 6.3 nM | 5.2 nM | CC(C)C[C@H](NC(=O)[C@H](CO)NC(=O)[C@@H](NC(=O)[C@H](CS)NC(=O)[C@H](CCC(N)=O)NC(=O)[C@H](CC(C)C)NC(=O)[C@@H](N)CO)C(C)C)C(=O)N[C@@H](Cc1c[nH]cn1)C(=O)N[C@@H](CC(C)C)C(=O)N[C@H](C(=O)O)C(C)C [Peptide 1418.52]
